Molecular target: Gamma-secretase
Assay: Inhibition of human gamma secretase assessed as reduction in Abeta42 production
Format: protein-complex assay

Row | Structure (SMILES) | IC50 [nM]
1 | Cc1cc(N2C[C@H]3CC[C@@H](C2)[C@@H]3Nc2nc3n(n2)CCC[C@H]3Oc2cc(F)cc(Cl)c2)ncn1 | 8.1
2 | Cc1cc(N2C[C@H]3CC[C@@H](C2)[C@@H]3Nc2nc3n(n2)CCC[C@H]3Oc2cccc(Cl)c2)ncn1 | 9.9
3 | COc1cc(N2C[C@H]3CC[C@@H](C2)[C@@H]3Nc2nc3n(n2)CC[C@H]3Oc2cc(F)cc(Cl)c2)cnn1 | 8.1
4 | Cc1cc(N2C[C@H]3CC[C@@H](C2)[C@@H]3Nc2nc3n(n2)CCC[C@H]3Oc2ccc(Cl)cc2)ncn1 | 10.3
5 | COc1cc(N2C[C@H]3CC[C@@H](C2)[C@@H]3Nc2nc3n(n2)CCC[C@H]3Oc2cc(F)cc(Cl)c2)cnn1 | 6.3
6 | Cc1cc(N2C[C@H]3CC[C@@H](C2)[C@@H]3Nc2nc3n(n2)CCC[C@H]3Oc2cc(Cl)cc(Cl)c2)ncn1 | 6.6

From ChEMBL document CHEMBL4725457, “Novel Bicyclic Heteroaryl Compounds as γ-Secretase Modulators for Treating Alzheimer's Disease” (ACS Med Chem Lett, 2020)
